Drawing on patent publication US8551984B2, “Aminopyrimidines as SYK inhibitors” (Merck Sharp & Dohme Corp., priority 2009, dated 2013), this text covers IC50 for 61 molecules.

The first assay addresses recombinant human SYK (GST-hSYK fusion protein) (Homo sapiens, UniProt P43405).
Assay: not given
The note with it: read-out: rhSYK Activity; Table 113B.
Turning to `Cc1cc(Nc2nccc(C)n2)cc(-c2cnc(C3(O)CC(C)C(C(=O)O)CC3C)s2)c1` (stereo not shown) [Example 113B-4], the IC50 was under 0.1 µM.
Same read-out and setting: in the case of `Cc1cc(Nc2nccc(C)n2)cc(-c2cnc(C3(O)CC(C)C(C(=O)O)CC3C)s2)c1` (stereo not shown) [Example 113B-5] it was under 0.1 µM; in that of `Cc1cc(Nc2nccc(C)n2)cc(-c2cnc(C3(O)CC(C)C(C(=O)O)CC3C)s2)c1` (stereo not shown) [Example 113B-6], under 0.1 µM.
Consider `Cc1cc(Nc2nccc(C(F)(F)F)n2)cc(-c2cnc(C3(O)CC(C)C(C(=O)O)CC3C)s2)c1` (stereo not shown) [Example 113B-13], for which the IC50 is under 0.1 µM.
Turning to `Cc1cc(Nc2nccc(C(F)(F)F)n2)cc(-c2cnc(C3(O)CC(C)C(C(=O)O)CC3C)s2)c1` (stereo not shown) [Example 113B-14], the IC50 is under 0.1 µM.
As to `Cc1cc(Nc2nccc(C(F)(F)F)n2)cc(-c2cnc(C3(O)CC(C)C(C(=O)O)CC3C)s2)c1` (stereo not shown) [Example 113B-15], the IC50 is under 0.1 µM.
Consider `Cc1cc(Nc2nccc(C(F)(F)F)n2)cc(-c2cnc(C3(O)CC(C)C(C(=O)O)CC3C)s2)c1` (stereo not shown) [Example 113B-16], for which the IC50 is under 0.1 µM.
The same measure, in the same setting: in the case of `Cc1cc(Nc2nccc(C)n2)cc(-c2cnc(C3(O)CC(C)C(C(=O)O)C(C)C3)s2)c1` (stereo not shown) [Example 113B-22] it was under 0.1 µM; in that of `Cc1cc(Nc2nccc(C(F)(F)F)n2)cc(-c2cnc(C3(O)CC(C)C(C(=O)O)C(C)C3)s2)c1` (stereo not shown) [Example 113B-25], under 0.1 µM.

The same assay, now with this note: read-out: rhSYK Activity; Table 113D, upper part.
Consider `Cc1cc(Nc2nccc(C(F)(F)F)n2)cc(-c2cnc(C(C)(O)c3ccc(C(=O)O)cn3)s2)c1` (stereo not shown) [Example 113D-6], for which the IC50 is under 0.1 µM.

A further assay has as its target rhSYK (Homo sapiens, UniProt P43405). Put plainly: biochemical.
Conditions: not given
For `Cc1cc(Nc2nccc(C(F)(F)F)n2)cc(-c2cnc(C(C)(O)c3ccc(C(N)=O)cc3)s2)c1` (single isomer, unassigned) [Example 117-20], the IC50 is under 0.1 µM.
Turning to `Cc1cc(Nc2nccc(C(F)(F)F)n2)cc(-c2cnc(C3(O)CCC(C(N)=O)C3)s2)c1` (single isomer, unassigned) [Example 119-2], the IC50 is under 0.1 µM.
Molecule `Cc1cc(Nc2nccc(C)n2)cc(-c2cnc(C3(O)CCC(C(N)=O)C(C)C3)s2)c1` (single isomer, unassigned) [Example 119-5] displayed an IC50 of under 0.1 µM.
For `Cc1cc(Nc2nccc(C(F)(F)F)n2)cc(-c2cnc(C3(O)CCC(C(N)=O)C(C)C3)s2)c1` (single isomer, unassigned) [Example 119-111], the IC50 is under 0.1 µM.
In turn, `Cc1cc(Nc2ncc(F)c(C)n2)cc(-c2cnc(C3(O)CCC4(CC3)OCCO4)s2)c1` [Example 116B-1] registered an IC50 of under 0.1 µM.
Same read-out and setting: for `Cc1cc(Nc2ncc(Cl)c(C)n2)cc(-c2cnc(C3(O)CCC4(CC3)OCCO4)s2)c1` [Example 116B-2] the value was under 0.1 µM; for `Cc1cc(Nc2nccc(C(F)(F)F)n2)cc(-c2cnc(C3(O)CC(C(N)=O)C3)s2)c1` (stereo not shown) [Example 117-1], under 0.1 µM.
In turn, `Cc1cc(Nc2nccc(C)n2)cc(-c2cnc(C3(O)CCC(C(N)=O)C4CCCCC43)s2)c1` (stereo not shown) [Example 117-2] came in with an IC50 of under 0.1 µM.
On to `Cc1cc(Nc2nccc(C(F)(F)F)n2)cc(-c2cnc([C@H]3CC[C@@H](C(N)=O)CC3)s2)c1` [Example 117-4], for which the IC50 is under 0.1 µM.
`Cc1cc(Nc2nccc(C(F)(F)F)n2)cc(-c2cnc([C@H]3CC[C@H](C(N)=O)CC3)s2)c1` [Example 117-5] gave an IC50 of under 0.1 µM.
`Cc1cc(Nc2nccc(C(F)(F)F)n2)cc(-c2cnc(C3(O)CCN(c4ncccc4C(N)=O)CC3)s2)c1` [Example 117-6] displayed an IC50 of under 0.1 µM.
`Cc1cc(Nc2nccc(C(F)(F)F)n2)cc(-c2cnc(C3(O)CCN(CCCC(N)=O)CC3)s2)c1` [Example 117-7] yielded an IC50 of under 0.1 µM.
Same read-out and setting: for `Cc1cc(Nc2nccc(C(F)(F)F)n2)cc(-c2cnc(C3(O)CCC(CC(N)=O)CC3)s2)c1` (stereo not shown) [Example 117-8] the value was under 0.1 µM.
The molecule `Cc1cc(Nc2nccc(C(F)(F)F)n2)cc(-c2cnc([C@]3(O)CC[C@@H](CCC(N)=O)CC3)s2)c1` [Example 117-11] registered an IC50 of under 0.1 µM.
As for `Cc1cc(Nc2nccc(C(F)(F)F)n2)cc(-c2cnc([C@]3(O)CC[C@H](CCC(N)=O)CC3)s2)c1` [Example 117-12], the IC50 was under 0.1 µM.
For `Cc1cc(Nc2nccc(C(C)C)n2)cc(-c2cnc(C3(O)CCCN(C(=O)CC(N)=O)CC3)s2)c1` (stereo not shown) [Example 117-13], the IC50 is under 0.1 µM.
Molecule `Cc1cc(Nc2nccc(OCCO)n2)cc(-c2cnc(CCC(N)=O)s2)c1` [Example 117-14] gave an IC50 of under 0.1 µM.
Turning to `CCC(CO)NC(=O)CCc1ncc(-c2cc(C)cc(Nc3nccc(C(F)(F)F)n3)c2)s1` (stereo not shown) [Example 117-15], the IC50 is under 0.1 µM.
The molecule `CCOC(=O)CNC(=O)CCc1ncc(-c2cc(C)cc(Nc3nccc(C(F)(F)F)n3)c2)s1` [Example 117-16] returned an IC50 of under 0.1 µM.
Molecule `COC(=O)C(C)NC(=O)CCc1ncc(-c2cc(C)cc(Nc3nccc(C(F)(F)F)n3)c2)s1` (stereo not shown) [Example 117-17] displayed an IC50 of under 0.1 µM.
As to `COC(=O)CCNC(=O)CCc1ncc(-c2cc(C)cc(Nc3nccc(C(F)(F)F)n3)c2)s1` [Example 117-18], the IC50 is under 0.1 µM.
Same read-out and setting: in the case of `COC(=O)C(CC(C)C)NC(=O)CCc1ncc(-c2cc(C)cc(Nc3nccc(C(F)(F)F)n3)c2)s1` (stereo not shown) [Example 117-19] it was 0.1 to 1 µM; in that of `Cc1cc(Nc2nccc(C(F)(F)F)n2)cc(-c2cnc([C@@]3(O)CC[C@H](C(N)=O)C(C)(C)C3)s2)c1Br` [Example 117-22], under 0.1 µM; in that of `Cc1cc(Nc2nccc(C)n2)cc(-c2cnc(C3(O)CCC(C(N)=O)C(C)(C)C3)s2)c1` (stereo not shown) [Example 119-7], under 0.1 µM.
In turn, `Cc1cc(Nc2nccc(C(C)C)n2)cc(-c2cnc([C@]3(O)CC[C@@H](C(N)=O)CC3)s2)c1` [Example 119-8] came in with an IC50 of under 0.1 µM.
In turn, `Cc1cc(Nc2nccc(C(C)(C)C)n2)cc(-c2cnc(C3(O)CCC(C(N)=O)CC3)s2)c1` (stereo not shown) [Example 119-9] registered an IC50 of under 0.1 µM.
Take `Cc1cc(Nc2nccc(C(C)C)n2)cc(-c2cnc(C3(O)CCC(C(N)=O)C(C)C3)s2)c1` (stereo not shown) [Example 119-10]: the IC50 was under 0.1 µM.
Consider `Cc1cc(Nc2nccc(OCCO)n2)cc(-c2cnc(C3(O)CCC(C(N)=O)CC3)s2)c1` (stereo not shown) [Example 119-14], for which the IC50 was under 0.1 µM.
Molecule `CNC(=O)C1CCC(O)(c2ncc(-c3cc(C)cc(Nc4nccc(C(F)(F)F)n4)c3)s2)CC1` (stereo not shown) [Example 119-15] had an IC50 of under 0.1 µM.
On to `Cc1cc(Nc2nccc(C(F)(F)F)n2)cc(-c2cnc([C@]3(O)CC[C@@H](C(=O)N(C)C)CC3)s2)c1` [Example 119-17], for which the IC50 is under 0.1 µM.
Same read-out and setting: for `Cc1cc(Nc2nccc(C(F)(F)F)n2)cc(-c2cnc(C3(O)CCC(C(=O)NCC#N)CC3)s2)c1` (stereo not shown) [Example 119-18] the value was under 0.1 µM.
On the same count and under the same terms, in the case of `Cc1cc(Nc2nccc(C(F)(F)F)n2)cc(-c2cnc([C@]3(O)CC[C@@H](C(=O)N4CCC4)CC3)s2)c1` [Example 119-19] it was under 0.1 µM.
Molecule `Cc1cc(Nc2nccc(C(F)(F)F)n2)cc(-c2cnc([C@]3(O)CC[C@@H](C(=O)NC(C)C)CC3)s2)c1` [Example 119-20] came in with an IC50 of under 0.1 µM.
The same measure, in the same setting: for `CCN(C)C(=O)[C@H]1CC[C@](O)(c2ncc(-c3cc(C)cc(Nc4nccc(C(F)(F)F)n4)c3)s2)CC1` [Example 119-21] the value was under 0.1 µM; for `Cc1cc(Nc2nccc(C(F)(F)F)n2)cc(-c2cnc([C@]3(O)CC[C@@H](C(=O)NCCO)CC3)s2)c1` [Example 119-22], under 0.1 µM; for `Cc1cc(Nc2nccc(C(F)(F)F)n2)cc(-c2cnc([C@]3(O)CC[C@@H](C(=O)NCC4CC4)CC3)s2)c1` [Example 119-23], under 0.1 µM.
Consider `Cc1cc(Nc2nccc(C(F)(F)F)n2)cc(-c2cnc([C@]3(O)CC[C@@H](C(=O)N4CCCC4)CC3)s2)c1` [Example 119-24], for which the IC50 is under 0.1 µM.
For `COCCNC(=O)[C@H]1CC[C@](O)(c2ncc(-c3cc(C)cc(Nc4nccc(C(F)(F)F)n4)c3)s2)CC1` [Example 119-25], the IC50 is under 0.1 µM.
Molecule `Cc1cc(Nc2nccc(C(F)(F)F)n2)cc(-c2cnc([C@]3(O)CC[C@@H](C(=O)NCC(=O)O)CC3)s2)c1` [Example 119-26] registered an IC50 of under 0.1 µM.
For the molecule `Cc1cc(Nc2nccc(C(F)(F)F)n2)cc(-c2cnc([C@]3(O)CC[C@@H](C(=O)Nc4ncc[nH]4)CC3)s2)c1` [Example 119-27], the IC50 was under 0.1 µM.
In the case of `Cc1cc(Nc2nccc(C(F)(F)F)n2)cc(-c2cnc(C3(O)CCC(C(=O)N(C)CCC#N)CC3)s2)c1` (stereo not shown) [Example 119-28], the IC50 is under 0.1 µM.
In turn, `Cc1cc(Nc2nccc(C(F)(F)F)n2)cc(-c2cnc([C@]3(O)CC[C@@H](C(=O)N4CCOCC4)CC3)s2)c1` [Example 119-29] came in with an IC50 of under 0.1 µM.
In the case of `Cc1cc(Nc2nccc(C(F)(F)F)n2)cc(-c2cnc(C3(O)CCC(C(=O)NCCC(N)=O)CC3)s2)c1` (stereo not shown) [Example 119-30], the IC50 was under 0.1 µM.
In the case of `COCCCNC(=O)[C@H]1CC[C@](O)(c2ncc(-c3cc(C)cc(Nc4nccc(C(F)(F)F)n4)c3)s2)CC1` [Example 119-31], the IC50 was under 0.1 µM.
Molecule `Cc1cc(Nc2nccc(C(F)(F)F)n2)cc(-c2cnc(C3(O)CCC(C(=O)NCC(O)CO)CC3)s2)c1` (stereo not shown) [Example 119-32] returned an IC50 of under 0.1 µM.
In the case of `Cc1cc(Nc2nccc(C(F)(F)F)n2)cc(-c2cnc(C3(O)CCC(C(=O)Nc4ccncc4)CC3)s2)c1` (stereo not shown) [Example 119-34], the IC50 was under 0.1 µM.
In turn, `Cc1cc(Nc2nccc(C(F)(F)F)n2)cc(-c2cnc([C@]3(O)CC[C@@H](C(=O)Nc4ccccn4)CC3)s2)c1` [Example 119-35] came in with an IC50 of under 0.1 µM.
In the case of `Cc1cc(Nc2nccc(C(F)(F)F)n2)cc(-c2cnc([C@]3(O)CC[C@@H](C(=O)Nc4cccnc4)CC3)s2)c1` [Example 119-36], the IC50 is under 0.1 µM.
With `Cc1cc(Nc2nccc(C(F)(F)F)n2)cc(-c2cnc(C3(O)CCC(C(=O)N4CCC(C#N)C4)CC3)s2)c1` (stereo not shown) [Example 119-37], the IC50 was under 0.1 µM.
As for `Cc1cc(Nc2nccc(C(F)(F)F)n2)cc(-c2cnc(C3(O)CCC(C(=O)NCc4cc[nH]n4)CC3)s2)c1` (stereo not shown) [Example 119-39], the IC50 was under 0.1 µM.
Consider `CCN(CCC#N)C(=O)C1CCC(O)(c2ncc(-c3cc(C)cc(Nc4nccc(C(F)(F)F)n4)c3)s2)CC1` (stereo not shown) [Example 119-40], for which the IC50 was under 0.1 µM.
